Where “and” joins values, the source holds several entries; their conditions need not be identical. Equal values may be shown once. Toxic doses and inconclusive results are not listed. Cut-off read from the data, not from the text of the source: active = T/C of 150% or more; inactive = T/C below 125%.
Test system: L1210 leukemia ip in BDF1 mice, survival T/C
Test: NCI In Vivo Anticancer Drug Screen. Data for tumor model L1210 Leukemia (intraperitoneal) in B6D2F1 (BDF1) mice
Details: endpoint: mean survival time, higher = longer survival
How it was run: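 Read-out is survival time, reported as the treated-group measurement over the vehicle-control measurement.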

[1] = dose: 15.0 mg/kg/injection, schedule: Q01DX Z (ip), vehicle: saline
[2] = dose: 30.0 mg/kg/injection, schedule: Q01DX Z (ip), vehicle: saline
[3] = dose: 60.0 mg/kg/injection, schedule: Q01DX Z (ip), vehicle: saline
[4] = dose: 120.0 mg/kg/injection, schedule: Q01DX Z (ip), vehicle: saline
[5] = dose: 100.0 mg/kg/injection, schedule: Q04DX002 (ip), vehicle: Klucel (hydroxypropylcellulose) (HPC)
[6] = dose: 200.0 mg/kg/injection, schedule: Q04DX002 (ip), vehicle: Klucel (hydroxypropylcellulose) (HPC)
[7] = dose: 400.0 mg/kg/injection, schedule: Q04DX002 (ip), vehicle: Klucel (hydroxypropylcellulose) (HPC)
[8] = dose: 100.0 mg/kg/injection, schedule: Q01DX001 (ip), vehicle: saline
[9] = dose: 200.0 mg/kg/injection, schedule: Q01DX001 (ip), vehicle: saline
[10] = dose: 100.0 mg/kg/injection, schedule: Q01DX009 (ip), vehicle: Klucel (hydroxypropylcellulose) (HPC)
[11] = dose: 200.0 mg/kg/injection, schedule: Q01DX009 (ip), vehicle: Klucel (hydroxypropylcellulose) (HPC)
[12] = dose: 400.0 mg/kg/injection, schedule: Q01DX009 (ip), vehicle: Klucel (hydroxypropylcellulose) (HPC)

Measured: T/C

NC(N)=N/N=C/c1ccccn1
inactive: [1] 94 % of control | [2] 102 % of control | [3] 95 % of control and 101 % of control | dose: 60.0 mg/kg/injection, schedule: Q01DX Z (oral), vehicle: saline 103 % of control | [4] 96 % of control and 98 % of control | dose: 120.0 mg/kg/injection, schedule: Q01DX Z (oral), vehicle: saline 108 % of control | dose: 240.0 mg/kg/injection, schedule: Q01DX Z (oral), vehicle: saline 103 % of control | dose: 480.0 mg/kg/injection, schedule: Q01DX Z (oral), vehicle: saline 107 % of control

O=C(CCCl)OCCCl
inactive: dose: 50.0 mg/kg/injection, schedule: Q01DX009 (ip), vehicle: saline sonified 94 % of control | dose: 100.0 mg/kg/injection, schedule: Q01DX009 (ip), vehicle: saline sonified 96 % of control | dose: 200.0 mg/kg/injection, schedule: Q01DX009 (ip), vehicle: saline sonified 94 % of control

O=C(NC(Cc1ccccc1)C(=O)N1CCCCC1)c1ccccc1 (configuration not stated)
inactive: dose: 100.0 mg/kg/injection, schedule: Q01DX001 (ip), vehicle: carboxymethylcellulose (CMC) 101 % of control | dose: 200.0 mg/kg/injection, schedule: Q01DX001 (ip), vehicle: carboxymethylcellulose (CMC) 92 % of control | dose: 400.0 mg/kg/injection, schedule: Q01DX001 (ip), vehicle: carboxymethylcellulose (CMC) 90 % of control

Cc1ccccc1NC(=O)Oc1ccc(C2CCCCC2)cc1
inactive: [5] 103 % of control | [6] 91 % of control | [7] 100 % of control

O=C(Nc1cc(C(F)(F)F)cc(C(F)(F)F)c1)Nc1c(Oc2ccc(Cl)cc2Cl)ccc(Cl)c1S(=O)(=O)O
inactive: dose: 100.0 mg/kg/injection, schedule: Q04DX003 (ip), vehicle: saline sonified 100 % of control | dose: 200.0 mg/kg/injection, schedule: Q04DX003 (ip), vehicle: saline sonified 100 % of control

Cc1cc(N)c2cc(NC(=O)CCCCCCCCC(=O)Nc3ccc4nc(C)cc(N)c4c3)ccc2n1
inactive: dose: 8.9 mg/kg/injection, schedule: Q01DX Z (ip), vehicle: saline 103 % of control and 114 % of control | dose: 12.0 mg/kg/injection, schedule: Q01DX Z (ip), vehicle: methylcellulose (MC) 96 % of control | dose: 12.0 mg/kg/injection, schedule: Q01DX Z (ip), vehicle: saline 121 % of control | dose: 13.3 mg/kg/injection, schedule: Q01DX Z (ip), vehicle: carboxymethylcellulose (CMC) 114 % of control | dose: 13.3 mg/kg/injection, schedule: Q01DX Z (ip), vehicle: saline 111 % of control | dose: 18.0 mg/kg/injection, schedule: Q01DX Z (ip), vehicle: methylcellulose (MC) 100 % of control | dose: 18.0 mg/kg/injection, schedule: Q01DX Z (ip), vehicle: saline 119 % of control | dose: 20.0 mg/kg/injection, schedule: Q01DX Z (ip), vehicle: carboxymethylcellulose (CMC) 112 % of control | dose: 20.0 mg/kg/injection, schedule: Q01DX Z (ip), vehicle: saline 114 % of control and 122 % of control | dose: 27.0 mg/kg/injection, schedule: Q01DX Z (ip), vehicle: methylcellulose (MC) 96 % of control | dose: 27.0 mg/kg/injection, schedule: Q01DX Z (ip), vehicle: saline 123 % of control | dose: 30.0 mg/kg/injection, schedule: Q01DX Z (ip), vehicle: carboxymethylcellulose (CMC) 108 % of control | [2] 115 % of control | dose: 40.0 mg/kg/injection, schedule: Q01DX Z (ip), vehicle: methylcellulose (MC) 96 % of control | dose: 40.0 mg/kg/injection, schedule: Q01DX Z (ip), vehicle: saline 121 % of control | dose: 50.0 mg/kg/injection, schedule: Q01DX001 (ip), vehicle: saline 106 % of control | dose: 90.0 mg/kg/injection, schedule: Q01DX Z (ip), vehicle: methylcellulose (MC) 107 % of control | dose: 90.0 mg/kg/injection, schedule: Q01DX Z (ip), vehicle: saline 113 % of control and 121 % of control and 86 % of control | [8] 120 % of control | dose: 100.0 mg/kg/injection, schedule: Q04DX003 (ip), vehicle: carboxymethylcellulose (CMC) 121 % of control | dose: 135.0 mg/kg/injection, schedule: Q01DX Z (ip), vehicle: methylcellulose (MC) 93 % of control | [9] 112 % of control | dose: 200.0 mg/kg/injection, schedule: Q04DX003 (ip), vehicle: carboxymethylcellulose (CMC) 117 % of control | dose: 400.0 mg/kg/injection, schedule: Q04DX003 (ip), vehicle: carboxymethylcellulose (CMC) 116 % of control

CCCCCCCCCC(=O)N1CCCN(C(=O)CCCCCCCCC)C1
inactive: dose: 30.0 mg/kg/injection, schedule: Q01DX001 (ip), vehicle: saline 102 % of control | [8] 98 % of control | dose: 300.0 mg/kg/injection, schedule: Q01DX001 (ip), vehicle: saline 93 % of control

Cc1cccc(C(=O)OCc2ccccc2CN2CCCC2)c1
inactive: dose: 100.0 mg/kg/injection, schedule: Q04DX002 (ip), vehicle: saline 93 % of control | dose: 200.0 mg/kg/injection, schedule: Q04DX002 (ip), vehicle: saline 104 % of control

O=C(/C=C/c1ccc([N+](=O)[O-])cc1)Nc1ccc(S(=O)(=O)F)cc1
inactive: [8] 96 % of control | [10] 94 % of control | [9] 101 % of control | [11] 89 % of control | dose: 400.0 mg/kg/injection, schedule: Q01DX001 (ip), vehicle: saline 100 % of control | [12] 88 % of control

CCOC(=O)Nc1ccc([N+](=O)[O-])cc1
inactive: [10] 87 % of control | dose: 100.0 mg/kg/injection, schedule: Q04DX003 (ip), vehicle: Klucel (hydroxypropylcellulose) (HPC) 99 % of control | [11] 99 % of control | dose: 200.0 mg/kg/injection, schedule: Q04DX003 (ip), vehicle: Klucel (hydroxypropylcellulose) (HPC) 110 % of control | [12] 97 % of control | dose: 400.0 mg/kg/injection, schedule: Q04DX003 (ip), vehicle: Klucel (hydroxypropylcellulose) (HPC) 89 % of control

CC(=N/N=C(N)N)/C(C)=N/N=C(N)N
inactive: [1] 98 % of control | [2] 97 % of control | dose: 60.0 mg/kg/injection, schedule: Q01DX005 (oral), vehicle: saline 96 % of control | [3] 108 % of control | [4] 98 % of control

O=C(N/N=C/c1ccccc1Cl)c1ccccc1NC(=O)C1CC1
inactive: [10] 97 % of control | [11] 98 % of control | [12] 101 % of control

CCOC1(CC)CN(Cc2ccccc2)CCO1 (configuration not stated)
inactive: [10] 103 % of control | [11] 93 % of control | [12] 98 % of control

Oc1ccc(Sc2ccc(O)cc2)cc1
inactive: dose: 100.0 mg/kg/injection, schedule: Q04DX003 (ip), vehicle: saline 101 % of control | dose: 200.0 mg/kg/injection, schedule: Q04DX003 (ip), vehicle: saline 92 % of control

CCOC(=O)Nc1ccccn1
inactive: [5] 100 % of control | [6] 103 % of control | [7] 92 % of control

O=[N+]([O-])c1cccc(C=Nc2ccc(Nc3ccccc3)cc2)c1
inactive: [5] 114 % of control | [6] 100 % of control | [7] 111 % of control

Cc1cnc(N)c([N+](=O)[O-])c1
inactive: dose: 100.0 mg/kg/injection, schedule: Q01DX005 (ip), vehicle: Klucel (hydroxypropylcellulose) (HPC) 94 % of control | [10] 97 % of control | [5] 96 % of control | dose: 200.0 mg/kg/injection, schedule: Q01DX005 (ip), vehicle: Klucel (hydroxypropylcellulose) (HPC) 94 % of control | [11] 97 % of control | [6] 100 % of control | dose: 400.0 mg/kg/injection, schedule: Q01DX005 (ip), vehicle: Klucel (hydroxypropylcellulose) (HPC) 94 % of control | [12] 91 % of control | [7] 93 % of control

COc1ccc(OC(=O)Nc2cc([N+](=O)[O-])ccc2OC)cc1
inactive: dose: 25.0 mg/kg/injection, schedule: Q01DX009 (ip), vehicle: Klucel (hydroxypropylcellulose) (HPC) 89 % of control | dose: 50.0 mg/kg/injection, schedule: Q01DX009 (ip), vehicle: Klucel (hydroxypropylcellulose) (HPC) 96 % of control | [10] 88 % of control | [11] 88 % of control

FC(F)(F)COP1(OCC(F)(F)F)=NP(OCC(F)(F)F)(OCC(F)(F)F)=NP(c2ccccc2)(c2ccccc2)=N1
inactive: dose: 25.0 mg/kg/injection, schedule: Q01DX009 (ip), vehicle: saline 93 % of control | dose: 50.0 mg/kg/injection, schedule: Q01DX009 (ip), vehicle: saline 96 % of control | dose: 100.0 mg/kg/injection, schedule: Q01DX009 (ip), vehicle: saline 86 % of control

CN(C)CCCNC(=S)Nc1ccc(Cl)cc1
inactive: dose: 50.0 mg/kg/injection, schedule: Q01DX009 (ip), vehicle: saline with Tween-80 108 % of control | dose: 100.0 mg/kg/injection, schedule: Q01DX009 (ip), vehicle: saline with Tween-80 108 % of control

— PubChem BioAssay AID248 (DTP/NCI, 2004)
